Consider two compounds from patent US9044453B2, “Long-acting injectable moxidectin formulations and novel moxidectin crystal forms” (MERIAL, INC., priority 2011, dated 2015).

The series in a line: Moisture Sorption Gravimetric Analysis (SGA), hygroscopicity. The following applies: isothermal 25° C., 5 to 95 % RH. The series is classed as physicochemical. How it is done:
Moisture Sorption Gravimetric Analysis (SGA). Utilizing a dynamic SGA100 from VTI, adsorption and desorption profiles were obtained with the following conditions: 1) Isothermal @ 25° C.; 2) Maximum Equilibration Time of 10 minutes; 3) 0.0010 wt % in 5 minutes; and 4) % RH (Relative Humidity) Steps of 5 to 95, and 95 to 5 @ 5% increments.

SMILES strings stand for the structures.

In the case of `CO/N=C1\C[C@]2(C[C@@H]3C[C@@H](C/C=C(\C)C[C@@H](C)/C=C/C=C4\CO[C@@H]5[C@H](O)C(C)=C[C@@H](C(=O)O3)[C@]45O)O2)O[C@H](/C(C)=C/C(C)C)[C@H]1C` [Crystalline moxidectin, moxidectin], the hygroscopicity entry was “almost non-hygroscopic”.
As to `CO/N=C1\C[C@]2(C[C@@H]3C[C@@H](C/C=C(\C)C[C@@H](C)/C=C/C=C4\CO[C@@H]5[C@H](O)C(C)=C[C@@H](C(=O)O3)[C@]45O)O2)O[C@H](/C(C)=C/C(C)C)[C@H]1C` [amorphous moxidectin, moxidectin], the hygroscopicity entry is recorded as “slightly hygroscopic”.
